The target in experiment [1] is P2X7 receptor (hP2X7) (Homo sapiens (Human), UniProt Q99572). Nature of the experiment: Screen Quest Fluo-8 No Wash Calcium Assay (Bz-ATP-induced Ca2+ influx, FLIPR TETRA). It counts as cell-based. The note with it: HEK-293 cells stably transfected with P2X7 receptor, Fluo-8 calcium, Low Divalent Cation Assay Buffer. How it is done: Extracellular binding of Bz-ATP to P2X7 receptor opens the channel and allows Ca2+ influx into the cells. This Ca2+ entry was measured in HEK-293 cells stably transfected with P2X7 receptor using Screen Quest™ Fluo-8 No Wash Calcium Assay Kit (AAt Bioquest®, cat. 36316). Once inside the cell, the lipophilic blocking groups of Fluo-8 are cleaved by non-specific cell esterases, resulting in a negatively-charged fluorescent dye that stays inside cells. Its fluorescence increases upon binding to calcium. When HEK-293/P2X7 cells are stimulated with Bz-ATP, Ca2+ enters the cells and the fluorescence of Fluo-8 NW increases. The dye has an absorption spectrum compatible with excitation at 488 nm by argon laser sources and its emission wavelength is in the range of 515-575 nm.
P2X7 receptor (hP2X7), sequence (Q99572 whole entry): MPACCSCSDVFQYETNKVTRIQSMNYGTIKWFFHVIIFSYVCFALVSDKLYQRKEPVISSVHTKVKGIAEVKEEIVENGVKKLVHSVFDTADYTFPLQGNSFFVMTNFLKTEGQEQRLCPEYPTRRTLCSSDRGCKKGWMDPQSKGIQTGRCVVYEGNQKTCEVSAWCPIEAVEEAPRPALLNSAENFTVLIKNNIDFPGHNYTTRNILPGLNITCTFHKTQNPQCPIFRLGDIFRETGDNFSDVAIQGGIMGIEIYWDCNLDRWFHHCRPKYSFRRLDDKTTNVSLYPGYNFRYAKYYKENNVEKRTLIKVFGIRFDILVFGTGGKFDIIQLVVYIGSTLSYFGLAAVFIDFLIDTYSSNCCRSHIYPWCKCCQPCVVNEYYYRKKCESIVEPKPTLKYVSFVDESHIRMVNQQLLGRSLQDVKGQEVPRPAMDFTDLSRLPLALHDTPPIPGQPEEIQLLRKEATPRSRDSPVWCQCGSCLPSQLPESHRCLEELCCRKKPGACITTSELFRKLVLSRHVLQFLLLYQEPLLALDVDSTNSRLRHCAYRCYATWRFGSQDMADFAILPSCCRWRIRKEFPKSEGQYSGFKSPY
HEK-293 cells stably transfected with P2X7 receptor were seeded overnight in growth medium at 10,000 to 20,000 cells/well in 384-well plate. 24 hours later, the medium was removed and the cells were pre-loaded at RT for 1 hour with 20 μL/w of Fluo-8 NW. Then 10 μL/w of test compounds and reference antagonist A438079 at 3×-concentration were injected with the […] and the kinetic response over a period of five minutes was monitored.

Experiment [2] concerns the target P2X7 receptor (Homo sapiens (Human), UniProt Q99572). Nature of the experiment: YO-PRO-1 Uptake Assay (large pore form, Bz-ATP stimulated). Format: cell-based. Conditions: HEK-293 cells stably transfected with P2X7 receptor; Bz-ATP EC80 (30 μM); 5 μM YO-PRO-1. From the text:
YO-PRO®-1 is a fluorescent DNA-binding dye with a MW of 374 Da (Molecular Probes®, cat. Y3603). This method is based upon the presumed ability of YO-PRO®-1 to enter through the dilated or “large pore form” of P2X7 receptor and to bind to intracellular DNA whereupon it increases many fold its fluorescence intensity. The dye has an absorption spectrum compatible with excitation at 488 nm by argon laser sources and its emission wavelength is in the range of 515-575 nm. The aim of this assay was to validate the interaction of antagonists with P2X7 receptor using an alternative readout to Ca^2+-sensitive fluorescent dyes.
HEK-293 cells stably transfected with P2X7 receptor were seeded overnight in growth medium at 20,000 cells/well in 384-well plate. 24 hours later, the medium was removed, the cells were washed with Low Divalent Cation Assay Buffer (0.3 mM Ca2+ and 0 mM Mg2+) and then pre-loaded with 20 μL/w of 5 μM YO-PRO®-1 dye. […] fluorescence measurement immediately started. Then, 10 μL/w of test compounds and reference antagonist A438079 at 3×-concentration were injected with the […] and the kinetic response over a period of five minutes was monitored. A second injection of 10 μL/w of 3× Bz-ATP EC80 (30 μM) was performed with the […] and the signal of the emitted fluorescence was recorded for additional 60 minutes. All the experiment was carried out with a Low Divalent Cation Assay Buffer (0.3 mM Ca^2+ and 0 mM Mg^2+).
The effect of the test compounds was measured as percent inhibition vs the reference antagonist and IC50 values were calculated accordingly.

P2X7 receptor, sequence (Q99572 whole entry): as above

As for `Cc1ncc(C(CNC(=O)c2c(C)cccc2C)N2CCC(F)(F)CC2)s1` (stereo not shown) [Compound 40, N-[2-(4,4-difluoropiperidin-1-yl)-2-(2-methyl-1,3-thiazol-5-yl)ethyl]-2,6-dimethylbenzamide], the IC50 (as a rule, the point on the concentration scale where inhibition reaches its midpoint) in experiment [1] worked out at 30 nM; in experiment [2] it was 18 nM. The matching figures for `Cc1cccc(C)c1C(=O)NCC(c1scnc1C)N1CCc2ccccc2C1` (stereo not shown) [Compound 30, 2,6-dimethyl-N-[2-(4-methyl-1,3-thiazol-5-yl)-2-(1,2,3,4-tetrahydroisoquinolin-2-yl)ethyl]benzamide]: 46 nM and 37 nM. The matching figures for `O=C(NCC(c1cncs1)N1CCc2ccccc2C1)c1c(F)cccc1Cl` (stereo not shown) [Compound 9, 2-chloro-N-[2-(3,4-dihydro-1H-isoquinolin-2-yl)-2-(1,3-thiazol-5-yl)-ethyl]-6-fluoro-benzamide]: 100 nM and 464 nM. Turning to `Cc1ncsc1C(CNC(=O)c1cc(-c2ncc(F)cn2)ccc1Cl)N1CCOC2(CCC2)C1` (stereo not shown) [Compound 93, 2-chloro-5-(5-fluoropyrimidin-2-yl)-N-[2-(4-methyl-1,3-thiazol-5-yl)-2-{5-oxa-8-azaspiro[3.5]nonan-8-yl}ethyl]benzamide], the IC50 in experiment [1] worked out at 116 nM; in experiment [2], 82 nM. For `O=C(NCC(c1cscn1)N1CCC(F)(F)CC1)c1c(F)cccc1Cl` (stereo not shown) [Compound 4, 2-chloro-N-[2-(4,4-difluoropiperidin-1-yl)-2-(1,3-thiazol-4-yl)ethyl]-6-fluorobenzamide], the IC50 in experiment [1] turned out to be 845 nM; in experiment [2] it was 3300 nM. In the same order, the values of `Cc1cccc(C)c1C(=O)NCC(c1cncs1)N1CCc2ccccc2C1` (stereo not shown) [Compound 18, 2,6-dimethyl-N-[2-(1,2,3,4-tetrahydroisoquinolin-2-yl)-2-(1,3-thiazol-5-yl)ethyl]benzamide] are 90 nM and 190 nM.

`CCCc1ncc(C(CNC(=O)c2c(F)cccc2Cl)N2CCC(F)(F)CC2)s1` (stereo not shown) [Compound 109, 2-chloro-N-[2-(4,4-difluoropiperidin-1-yl)-2-(2-propyl-1,3-thiazol-5-yl)ethyl]-6-fluorobenzamide]: the IC50 in experiment [1] is 78 nM; in experiment [2], 50 nM. Regarding `Cc1ncoc1C(CNC(=O)c1cc(-c2ncc(F)cn2)ccc1Cl)N1CCC(F)(F)CC1` (stereo not shown) [Compound 51, 2-chloro-N-[2-(4,4-difluoropiperidin-1-yl)-2-(4-methyl-1,3-oxazol-5-yl)ethyl]-5-(5-fluoropyrimidin-2-yl)benzamide], the IC50 worked out at 101 nM in experiment [1] and 71 nM in experiment [2]. In the same order, the values of `O=C(NCC(c1cnc(C2CCC2)s1)N1CCC(F)(F)CC1)c1cc(-c2ncc(F)cn2)ccc1Cl` (stereo not shown) [Compound 111] are 1020 nM and 326 nM. The matching figures for `Cc1ncc(C(CNC(=O)c2c(F)cccc2Cl)N2CCC(F)(F)CC2)s1` (stereo not shown) [Compound 38, 2-chloro-N-[2-(4,4-difluoropiperidin-1-yl)-2-(2-methyl-1,3-thiazol-5-yl)ethyl]-6-fluorobenzamide]: 87 nM and 49 nM. With `Cc1ncoc1C(CNC(=O)c1c(F)cccc1Cl)N1CCC(F)(F)CC1` (stereo not shown) [Compound 52, 2-chloro-N-[2-(4,4-difluoropiperidin-1-yl)-2-(4-methyl-1,3-oxazol-5-yl)ethyl]-6-fluorobenzamide], in experiment [2], the midpoint of inhibition, the IC50, lay at 2070 nM. In the case of `Cc1ncsc1C(CNC(=O)c1cc(-c2ncc(F)cn2)ccc1F)N1CCOC2(CCC2)C1` (stereo not shown) [Compound 94, 2-fluoro-5-(5-fluoropyrimidin-2-yl)-N-[2-(4-methyl-1,3-thiazol-5-yl)-2-{5-oxa-8-azaspiro[3.5]nonan-8-yl}ethyl]benzamide], the IC50 in experiment [1] turned out to be 321 nM. Regarding `Cc1ncsc1C(CNC(=O)c1c(F)cccc1Cl)N1CCOC(c2cnn(C)c2)C1` (stereo not shown) [Compound 92, 2-chloro-6-fluoro-N-[2-(4-methyl-1,3-thiazol-5-yl)-2-[2-(1-methyl-1H-pyrazol-4-yl)morpholin-4-yl]ethyl]benzamide], the IC50 in experiment [1] came to 171 nM. In the case of `Cc1ncsc1C(CNC(=O)c1c(F)cccc1Cl)N1CCCC(F)(F)C1` (stereo not shown) [Compound 64, 2-chloro-N-[2-(3,3-difluoropiperidin-1-yl)-2-(4-methyl-1,3-thiazol-5-yl)ethyl]-6-fluorobenzamide], the IC50 in experiment [1] is 253 nM. On to `Cc1ncc(C(CNC(=O)c2cc(-c3ncc(F)cn3)ccc2F)N2CCC(F)(F)CC2)s1` (stereo not shown) [Compound 80, N-[2-(4,4-difluoropiperidin-1-yl)-2-(2-methyl-1,3-thiazol-5-yl)ethyl]-2-fluoro-5-(5-fluoropyrimidin-2-yl)benzamide], for which the IC50 in experiment [1] came out at 292 nM.

Regarding `Cc1ncsc1C(CNC(=O)c1c(F)cccc1Cl)N1CCOC(c2ccccc2C(F)(F)F)C1` (stereo not shown) [Compound 90, 2-chloro-6-fluoro-N-[2-(4-methyl-1,3-thiazol-5-yl)-2-{2-[2-(trifluoromethyl)phenyl]morpholin-4-yl}ethyl]benzamide], the IC50 in experiment [1] came to 412 nM. Consider `O=C(NCC(c1scnc1C1CC1)N1CCC(F)(F)CC1)c1cccc2ncccc12` (stereo not shown) [Compound 121, N-[2-(4-cyclopropyl-1,3-thiazol-5-yl)-2-(4,4-difluoropiperidin-1-yl)ethyl]quinoline-5-carboxamide], for which the IC50 in experiment [1] was determined as 531 nM.

As to `O=C(NCC(c1scnc1C1CC1)N1CCC(F)(F)CC1)c1cc(-c2ncc(F)cn2)ccc1Cl` (stereo not shown) [Compound 119], the IC50 in experiment [1] came out at 319 nM. As for `O=C(NCC(c1cnco1)N1CCC(F)(F)CC1)c1c(F)cccc1Cl` (stereo not shown) [Compound 45, 2-chloro-N-[2-(4,4-difluoropiperidin-1-yl)-2-(1,3-oxazol-5-yl)ethyl]-6-fluorobenzamide], 225 nM corresponded to half-maximal inhibition in experiment [2] (IC50).

Take `Cc1ncsc1C(CNC(=O)c1cc2c(cc1F)NC(=O)CC2)N1CCC(F)(F)CC1` (stereo not shown) [Compound 120, N-[2-(4,4-difluoropiperidin-1-yl)-2-(4-methyl-1,3-thiazol-5-yl)ethyl]-7-fluoro-2-oxo-1,2,3,4-tetrahydroquinoline-6-]: in experiment [1], the IC50 was determined as 6910 nM. Take `Cc1ncc(C(CNC(=O)c2cc(-c3cnccn3)ccc2Cl)N2CCC(F)(F)CC2)s1` (stereo not shown) [Compound 78, 2-chloro-N-[2-(4,4-difluoropiperidin-1-yl)-2-(2-methyl-1,3-thiazol-5-yl)ethyl]-5-(pyrazin-2-yl)benzamide]: the IC50 in experiment [1] was found to be 133 nM. For `CC(C)(C)c1ncc(C(CNC(=O)c2c(F)cccc2Cl)N2CCC(F)(F)CC2)s1` (stereo not shown) [Compound 118, N-[2-(2-tert-butyl-1,3-thiazol-5-yl)-2-(4,4-difluoropiperidin-1-yl)ethyl]-2-chloro-6-fluoro-benzamide], the IC50 in experiment [1] was found to be 243 nM.

For the compound `Cc1ncsc1C(CNC(=O)c1cc(-c2ncc(F)cn2)ccc1Cl)N1CCC(F)(F)CC1C` (stereo not shown) [Compound 103, 2-chloro-N-[2-(4,4-difluoro-2-methylpiperidin-1-yl)-2-(4-methyl-1,3-thiazol-5-yl)ethyl]-5-(5-fluoropyrimidin-2-yl)benzamide], the IC50 in experiment [1] came out at 186 nM. The same measure, in the same setting: the result for `Cc1ncsc1C(CNC(=O)c1c(F)cccc1Cl)N1CCC(F)(F)CC1C` (stereo not shown) [Compound 104, 2-chloro-N-[2-(4,4-difluoro-2-methylpiperidin-1-yl)-2-(4-methyl-1,3-thiazol-5-yl)ethyl]-6-fluorobenzamide] reads 1870 nM. Still for that read-out and setting: with `Cc1ncsc1C(CNC(=O)c1cc(-c2ncc(F)cn2)ccc1Cl)N1CC(F)(F)C1` (stereo not shown) [Compound 65, 2-chloro-N-[2-(3,3-difluoroazetidin-1-yl)-2-(4-methyl-1,3-thiazol-5-yl)ethyl]-5-(5-fluoropyrimidin-2-yl)benzamide] the figure was 39 nM; with `Cc1ncc(C(CNC(=O)c2cc(-c3ncc(F)cn3)ccc2Cl)N2CCC(F)(F)CC2C)s1` (stereo not shown) [Compound 113, 2-chloro-N-[2-(4,4-difluoro-2-methylpiperidin-1-yl)-2-(2-methyl-1,3-thiazol-5-yl)ethyl]-5-(5-fluoropyrimidin-2-yl)], 743 nM. Compound `COc1cccc(C(=O)NCC(c2ocnc2C)N2CCOCC2)c1OC` (stereo not shown) [Compound 53, 2,3-dimethoxy-N-[2-(4-methyl-1,3-oxazol-5-yl)-2-(morpholin-4-yl)ethyl]benzamide] displayed an IC50 in experiment [2] of 4900 nM.

The values are drawn from patent US9718812B2, “Substituted thiazole or oxazole P2X7 receptor antagonists” (Axxam S.P.A., priority 2014, dated 2017).
